Test results: BindingDB's records for doi:10.1007/bf00572436 (1985)

target: T1, Adenosine receptor A1 (Bos taurus, UniProt P28190)
T1 sequence (P28190 whole entry): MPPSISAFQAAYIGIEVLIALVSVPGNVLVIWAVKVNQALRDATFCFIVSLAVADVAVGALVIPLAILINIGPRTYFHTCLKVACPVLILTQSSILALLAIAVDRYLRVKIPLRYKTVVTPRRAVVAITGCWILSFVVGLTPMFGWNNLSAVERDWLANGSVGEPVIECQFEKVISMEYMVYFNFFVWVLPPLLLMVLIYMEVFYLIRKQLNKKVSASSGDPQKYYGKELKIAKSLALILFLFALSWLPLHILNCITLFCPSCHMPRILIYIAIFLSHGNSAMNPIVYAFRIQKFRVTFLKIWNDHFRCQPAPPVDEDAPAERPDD

| Ki [µM] | SMILES |
| --- | --- |
| > 10 | CCCn1c(=O)[nH]c(=O)c2[nH]cnc21 [3-Propylxanthine (enprofylline)] |
| 0.0032 | CCCn1c(=O)c2nc(-c3ccc(O)cc3)[nH]c2n(CCC)c1=O [8-(4-Hydroxy-phenyl)-1,3-dipropyl-3,9-dihydro-purine-2,6-dione] |
| 0.0003 | CCCn1c(=O)c2[nH]c(-c3ccc(Cl)cc3N)nc2n(CCC)c1=O [NSC_92411] |
| > 10 | CCN(CC)CCn1cnc2c1c(=O)n(C)c(=O)n2C [NSC_28329] |
| 0.0034 | Cn1c(=O)c2nc(-c3ccc(O)cc3)[nH]c2n(C)c1=O [8-(4-Hydroxy-phenyl)-1,3-dimethyl-3,7-dihydro-purine-2,6-dione] |

Second part, the molecule before the results:

| SMILES | Ki [µM] |
| --- | --- |
| O=c1[nH]c(=O)c2[nH]cnc2[nH]1 [NSC_1188] | > 10 |
| CC(=O)CCCCn1c(=O)c2c(ncn2C)n(C)c1=O [1-(5-Oxohexyl)theobromine (pentoxifylline)] | > 10 |
| CC(C)Cn1c(=O)n(C)c(=O)c2[nH]cnc21 [1-methyl-3-(2-methylpropyl)-2,3,6,7-tetrahydro-1H-purine-2,6-dione] | 2.5 |
| CC(O)Cn1cnc2c1c(=O)n(C)c(=O)n2C (stereo unspecified) [7-(2-Hydroxy-propyl)-1,3-dimethyl-3,7-dihydro-purine-2,6-dione(Proxyphylline)] | > 10 |
| Cn1c(=O)c2c(ncn2C[C@H](O)CO)n(C)c1=O [Diprophylline] | > 10 |
| CC(O)Cn1c(=O)c2c(ncn2C)n(C)c1=O (stereo unspecified) [NSC_66120] | > 10 |
| Cn1c(=O)c2c(ncn2C)n(C)c1=O | > 10 |
| CC(=O)Oc1ccc(-c2nc3c([nH]2)c(=O)n(C)c(=O)n3C)cc1 [8-(4-Acetoxyphenyl)theophylline] | 0.023 |
| Cn1cnc2c1c(=O)[nH]c(=O)n2C [theobromine] | > 10 |
| Cn1c(=O)c2c(ncn2CCO)n(C)c1=O [BETA-HYDROXYETHYL THEOPHYLLINE] | > 10 |
| Cn1c(=O)[nH]c2ncn(C)c2c1=O [1,7-dimethylxanthine] | > 10 |
